# Data taken from patent US20100120762A1, “Triazine derivatives as inhibitors of phosphodiesterases” (WYETH, priority 2008, published 2010).
# Where two headings read alike, the source gives them in different places.
# Assays:
# PDE10A1 (AB 020593) = biological target: T1, PDE10A1 (AB 020593) (Homo sapiens, UniProt Q9Y233); experiment: Inhibition of recombinant PDE10A (baculovirus/SF21 system); format: biochemical
# T1 construct: made in house; host or cells: baculovirus / SF21 insect cells (gene synthesized by Entelechon GmbH)
# T1 sequence (Q9Y233 other isoform, or with tags, fused parts or gaps): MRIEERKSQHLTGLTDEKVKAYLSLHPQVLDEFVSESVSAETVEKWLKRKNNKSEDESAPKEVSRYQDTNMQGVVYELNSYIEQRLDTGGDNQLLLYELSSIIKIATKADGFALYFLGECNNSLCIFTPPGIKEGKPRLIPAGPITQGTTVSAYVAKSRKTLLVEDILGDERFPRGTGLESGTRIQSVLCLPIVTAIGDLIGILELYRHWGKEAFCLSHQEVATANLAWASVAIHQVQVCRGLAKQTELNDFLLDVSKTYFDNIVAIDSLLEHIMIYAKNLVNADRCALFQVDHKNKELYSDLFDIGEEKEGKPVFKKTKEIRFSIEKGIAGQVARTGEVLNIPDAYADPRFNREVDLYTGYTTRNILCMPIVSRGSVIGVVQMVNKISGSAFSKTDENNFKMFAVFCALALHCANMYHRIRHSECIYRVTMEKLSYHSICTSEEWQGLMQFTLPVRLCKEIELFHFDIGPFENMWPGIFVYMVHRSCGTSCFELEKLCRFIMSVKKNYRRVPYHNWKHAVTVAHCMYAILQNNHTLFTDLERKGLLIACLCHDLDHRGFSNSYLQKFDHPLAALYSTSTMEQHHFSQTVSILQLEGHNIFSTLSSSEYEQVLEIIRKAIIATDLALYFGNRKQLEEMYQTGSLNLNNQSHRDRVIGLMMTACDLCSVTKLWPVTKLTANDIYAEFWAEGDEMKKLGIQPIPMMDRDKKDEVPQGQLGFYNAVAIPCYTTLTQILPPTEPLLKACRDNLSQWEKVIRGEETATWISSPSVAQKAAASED
# Procedure, shortened: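 Cytosolic PDE10A1 expressed in SF21 cells via baculovirus, incubated with 0.1 μM [3H]-cAMP in 50 mM Tris-HCl/5 mM MgCl2, pH 7.4, 30 min at 37 °C. SPA-bead scintillation read-out, with enzyme-free wells as background. IC50 from Hill plot, 2-parameter model.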
# PDE2A (NM002599) = biological target: T2, PDE2A (NM002599) (Homo sapiens, UniProt O00408); experiment: Inhibition of recombinant PDE2A (expressed in baculovirus/SF21-cells); format: biochemical
# T2 construct: made in house; host or cells: baculovirus / SF21 insect cells
# T2 sequence (O00408 whole entry): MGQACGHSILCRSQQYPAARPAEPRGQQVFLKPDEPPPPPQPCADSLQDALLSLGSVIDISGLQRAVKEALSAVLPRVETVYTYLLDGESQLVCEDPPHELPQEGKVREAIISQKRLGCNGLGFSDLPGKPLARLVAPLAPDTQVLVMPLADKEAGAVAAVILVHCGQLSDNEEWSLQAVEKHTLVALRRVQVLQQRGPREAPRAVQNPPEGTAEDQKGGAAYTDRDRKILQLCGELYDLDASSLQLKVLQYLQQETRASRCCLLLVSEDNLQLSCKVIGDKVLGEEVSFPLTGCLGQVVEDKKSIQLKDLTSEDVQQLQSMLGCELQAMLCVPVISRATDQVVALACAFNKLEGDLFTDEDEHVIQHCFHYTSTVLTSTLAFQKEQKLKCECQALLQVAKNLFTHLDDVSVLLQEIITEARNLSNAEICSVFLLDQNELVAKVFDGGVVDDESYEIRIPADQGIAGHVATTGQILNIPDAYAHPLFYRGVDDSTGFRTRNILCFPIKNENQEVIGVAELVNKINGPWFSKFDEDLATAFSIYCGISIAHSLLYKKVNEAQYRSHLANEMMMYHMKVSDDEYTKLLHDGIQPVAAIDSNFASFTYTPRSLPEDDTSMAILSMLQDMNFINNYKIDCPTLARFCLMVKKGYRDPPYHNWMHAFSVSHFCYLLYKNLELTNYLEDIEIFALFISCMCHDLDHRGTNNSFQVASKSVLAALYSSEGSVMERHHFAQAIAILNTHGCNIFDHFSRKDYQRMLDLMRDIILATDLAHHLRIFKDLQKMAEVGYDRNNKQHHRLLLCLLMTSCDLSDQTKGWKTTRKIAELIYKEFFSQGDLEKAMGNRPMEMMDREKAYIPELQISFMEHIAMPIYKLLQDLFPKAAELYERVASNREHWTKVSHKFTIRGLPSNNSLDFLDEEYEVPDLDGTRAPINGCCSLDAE
# Procedure, shortened: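 Human PDE2A membrane fraction from baculovirus-infected SF21 cells; 0.5 μM [3H]-cAMP with 1000 nM cGMP as activator in 50 mM Tris-HCl/5 mM MgCl2 pH 7.4, 30 min at 37° C, SPA read-out. Non-specific activity measured without cGMP; IC50 by 2-parameter Hill fit.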
# [1] = recombinant cytosolic PDE10A, 0.1 μM [3H]-cAMP, 37° C., 30 minutes, SPA, read-out: PDE10A IC50
# [2] = recombinant PDE2A, 0.5 μM [3H]-cAMP, 1000 nM cGMP, 37° C., 30 minutes, SPA, read-out: PDE2A IC50
Structure (SMILES),melting point [°C],IC50 (PDE10A1 (AB 020593); [1]) [nM],IC50 (PDE2A (NM002599); [2]) [nM],IC50 (PDE10A1 (AB 020593)) [nM],IC50 (PDE2A (NM002599)) [nM]
"CCCc1nc(C)c2nnc3ccc(OC)nc3n12 [Example 1, 8-methoxy-3-methyl-1-propyl-imidazo[5,1-c]-pyrido[2,3-e][1,2,4]triazine]",163 to 165,102,88.8,–,–
"CCc1nc(C)c2nnc3ccc(OC)nc3n12 [Example 2, 1-ethyl-8-methoxy-3-methyl-imidazo[5,1-c]pyrido[2,3-e][1,2,4]triazine]",202 to 203,297,399,–,–
"CCc1ncc2nnc3ccc(OC)nc3n12 [Example 3, 1-ethyl-8-methoxy-imidazo[5,1-c]pyrido[2,3-e][1,2,4]triazine]",167 to 168,4460,> 1000,–,–
"COc1ccc2nnc3c(C)nc(-c4cnn(C)c4)n3c2n1 [Example 79, 2-methoxy-7-methyl-9-(1-methyl-1H-pyrazol-4-yl)imidazo[5,1-c]pyrido[2,3-e][1,2,4]triazine]",–,362,523,–,–
"COc1ccc2nnc3c(C)nc(-c4cncnc4)n3c2n1 [Example 80, 2-methoxy-7-methyl-9-pyrimidin-5-ylimidazo[5,1-c]pyrido[2,3-e][1,2,4]triazine]",–,5950,4070,–,–
"COc1ccc2nnc3c(C)nc(-c4ccc5[nH]ccc5c4)n3c2n1 [Example 81, 9-(1H-indol-5-yl)-2-methoxy-7-methylimidazo[5,1-c]pyrido[2,3-e][1,2,4]triazine]",–,–,–,62.6,186
"COc1ccc2nnc3c(C)nc(-c4cc(F)cc(C(N)=O)c4)n3c2n1 [Example 82, 3-fluoro-5-(2-methoxy-7-methylimidazo[5,1-c]pyrido[2,3-e][1,2,4]triazin-9-yl)benzamide]",–,141,279,–,–
"COc1ccc2nnc3c(C)nc(-c4ccc(Cl)c(C(N)=O)c4)n3c2n1 [Example 83, 2-chloro-5-(2-methoxy-7-methylimidazo[5,1-c]pyrido[2,3-e][1,2,4]triazin-9-yl)benzamide]",–,233,639,–,–
"COc1ccc2nnc3c(C)nc(-c4ccc(C(N)=O)c(Cl)c4)n3c2n1 [Example 84, 2-chloro-4-(2-methoxy-7-methylimidazo[5,1-c]pyrido[2,3-e][1,2,4]triazin-9-yl)benzamide]",–,158,423,–,–
"COc1ccc2nnc3c(C)nc(-c4cc(Cl)cc(Cl)c4Cl)n3c2n1 [Example 85, 2-methoxy-7-methyl-9-(2,3,5-trichlorophenyl)imidazo[5,1-c]pyrido[2,3-e][1,2,4]triazine]",–,145,34.5,–,–
"COc1ccc2nnc3c(C)nc(-c4c(Cl)cccc4OC)n3c2n1 [Example 86, 9-(2-chloro-6-methoxyphenyl)-2-methoxy-7-methylimidazo[5,1-c]pyrido[2,3-e][1,2,4]triazine]",–,54.5,12,–,–
"COc1ccc2nnc3c(C)nc(-c4cc(C#N)ccc4Cl)n3c2n1 [Example 87, 4-chloro-3-(2-methoxy-7-methylimidazo[5,1-c]pyrido[2,3-e][1,2,4]triazin-9-yl)benzonitrile]",–,420,29.8,–,–
"COc1ccc2nnc3c(C)nc(-c4ccc(Cl)cc4Cl)n3c2n1 [Example 88, 9-(2,4-dichlorophenyl)-2-methoxy-7-methylimidazo[5,1-c]pyrido[2,3-e][1,2,4]triazine]",–,15,15.1,–,–
"COc1ccc(-c2nc(C)c3nnc4ccc(OC)nc4n23)c(Cl)c1 [Example 89, 9-(2-chloro-4-methoxyphenyl)-2-methoxy-7-methylimidazo[5,1-c]pyrido[2,3-e][1,2,4]triazine]",–,62.8,52.6,–,–
"COc1ccc2nnc3c(C)nc(-c4cccc(Cl)c4Cl)n3c2n1 [Example 90, 9-(2,3-dichlorophenyl)-2-methoxy-7-methylimidazo[5,1-c]pyrido[2,3-e][1,2,4]triazine]",–,41,49.3,–,–
"COc1ccc2nnc3c(C)nc(-c4cccc(F)c4Cl)n3c2n1 [Example 91, 9-(2-chloro-3-fluorophenyl)-2-methoxy-7-methylimidazo[5,1-c]pyrido[2,3-e][1,2,4]triazine]",–,11.8,17.2,–,–
"COc1ccc2nnc3c(C)nc(-c4ccc(Cl)c(Cl)c4)n3c2n1 [Example 92, 9-(3,4-dichlorophenyl)-2-methoxy-7-methylimidazo[5,1-c]pyrido[2,3-e][1,2,4]triazine]",–,231,660,–,–
"COc1ccc2nnc3c(C)nc(-c4cccc(Cl)c4)n3c2n1 [Example 93, 9-(3-chlorophenyl)-2-methoxy-7-methylimidazo[5,1-c]pyrido[2,3-e][1,2,4]triazine]",–,46.8,45.8,–,–

Structure (SMILES),melting point [°C],IC50 (PDE10A1 (AB 020593); [1]) [nM],IC50 (PDE2A (NM002599); [2]) [nM],IC50 (PDE10A1 (AB 020593)) [nM],IC50 (PDE2A (NM002599)) [nM]
"COc1ccc2nnc3c(C)nc(-c4cccc(Cl)c4C)n3c2n1 [Example 94, 9-(3-chloro-2-methylphenyl)-2-methoxy-7-methylimidazo[5,1-c]pyrido[2,3-e][1,2,4]triazine]",–,69.2,89.5,–,–
"COc1ccc2nnc3c(C)nc(-c4ccc(OC)c(Cl)c4)n3c2n1 [Example 95, 9-(3-chloro-4-methoxyphenyl)-2-methoxy-7-methylimidazo[5,1-c]pyrido[2,3-e][1,2,4]triazine]",–,> 500,772,–,–
"COc1ccc2nnc3c(C)nc(-c4ccc(F)c(Cl)c4)n3c2n1 [Example 96, 9-(3-chloro-4-fluorophenyl)-2-methoxy-7-methylimidazo[5,1-c]pyrido[2,3-e][1,2,4]triazine]",–,216,73.7,–,–
"COc1ccc2nnc3c(C)nc(-c4cc(Cl)cc(Cl)c4)n3c2n1 [Example 97, 9-(3,5-dichlorophenyl)-2-methoxy-7-methylimidazo[5,1-c]pyrido[2,3-e][1,2,4]triazine]",–,329,460,–,–
"COc1ccc2nnc3c(C)nc(-c4cc(Cl)ccc4OC)n3c2n1 [Example 98, 9-(5-chloro-2-methoxyphenyl)-2-methoxy-7-methylimidazo[5,1-c]pyrido[2,3-e][1,2,4]triazine]",–,86.9,62.9,–,–
"COc1ccc2nnc3c(C)nc(-c4cc(Cl)ccc4C(F)(F)F)n3c2n1 [Example 99, 9-[5-chloro-2-(trifluoromethyl)phenyl]-2-methoxy-7-methylimidazo[5,1-c]pyrido[2,3-e][1,2,4]triazine]",–,732,79.6,–,–
"COc1ccc(C)c(-c2nc(C)c3nnc4ccc(OC)nc4n23)c1 [Example 100, 2-methoxy-9-(5-methoxy-2-methylphenyl)-7-methylimidazo[5,1-c]pyrido[2,3-e][1,2,4]triazine]",–,55.6,5.52,–,–
"COc1ccc2nnc3c(C)nc(-c4ccccc4C)n3c2n1 [Example 101, 2-methoxy-7-methyl-9-o-tolylimidazo[5,1-c]pyrido[2,3-e][1,2,4]triazine]",–,46.1,15.8,–,–
"COc1ccc2nnc3c(C)nc(-c4ccccc4C(F)(F)F)n3c2n1 [Example 102, 9-[2-(trifluoromethyl)phenyl]-2-methoxy-7-methylimidazo[5,1-c]pyrido[2,3-e][1,2,4]triazine]",–,96.8,48.6,–,–
"COc1ccc2nnc3c(C)nc(-c4ccccc4C(N)=O)n3c2n1 [Example 103, 2-(2-methoxy-7-methylimidazo[5,1-c]pyrido[2,3-e][1,2,4]triazin-9-yl)benzamide]",–,1410,806,–,–
"COc1ccc2nnc3c(C)nc(-c4ccccc4Oc4ccccc4)n3c2n1 [Example 105, 8-Methoxy-3-methyl-1-(2-phenoxy-phenyl)-imidazo[5,1-c]pyrido[2,3-e][1,2,4]triazine]",–,817,61.7,–,–
"COc1ccnc2c1nnc1c(C)nc(-c3cc(Cl)ccc3Cl)n12 [Example 113, 9-(2,5-dichlorophenyl)-4-methoxy-7-methylimidazo[5,1-c]pyrido[2,3-e][1,2,4]triazine]",–,3.01,171,–,–
"COc1ccnc2c1nnc1c(C)nc(-c3ccncc3C)n12 [Example 114, 4-methoxy-7-methyl-9-(3-methylpyridin-4-yl)imidazo[5,1-c]pyrido[2,3-e][1,2,4]triazine]",–,10.1,2060,–,–
"COc1ccnc2c1nnc1c(C)nc(-c3cnccc3C)n12 [Example 115, 4-methoxy-7-methyl-9-(4-methylpyridin-3-yl)imidazo[5,1-c]pyrido[2,3-e][1,2,4]triazine]",–,42.4,1950,–,–
"COc1ccnc2c1nnc1c(C)nc(-c3cccnc3C)n12 [Example 116, 4-methoxy-7-methyl-9-(2-methylpyridin-3-yl)imidazo[5,1-c]pyrido[2,3-e][1,2,4]triazine]",–,15.1,1150,–,–
"Cc1nc(-c2ccccc2Cl)n2c1nnc1ccc(O)nc12 [Example 117, 1-(2-Chloro-phenyl)-8-hydroxy-3-methyl-imidazo[5,1-c]pyrido[2,3-e][1,2,4]triazine]",–,27.7,3.25,–,–
"Cc1nc(-c2cc(Cl)ccc2Cl)n2c1nnc1ccc(N3CCCC3)nc12 [Example 120, 1-(2,5-Dichloro-phenyl)-3-methyl-8-pyrrolidin-1-yl-imidazo[5,1-c]pyrido[2,3-e][1,2,4]triazine]",–,48,3.24,–,–
